Assay results published in patent publication US7358376B2, “Substituted Thiophene compounds” (AstraZeneca AB, priority 2000, dated 2008).

Which melting point does the source give for `CN(C)CCOc1ccccc1-c1cc(NC(N)=O)c(C(N)=O)s1` [Example 9, 3-[(Aminocarbonyl)amino]-5-{2-[2-(dimethylamino)ethoxy]phenyl}-2-thiophenecarboxamide] here?
The melting point was 180 °C.

With `CN(C)CCOc1ccc(-c2cc(NC(N)=O)c(C(N)=O)s2)cc1` [Example 10, 3-[(Aminocarbonyl)amino]-5-{4-[2-(dimethylamino)ethoxy]phenyl}-2-thiophenecarboxamide] as the molecule, how does the melting point read?
The melting point was over 300 °C.

With `COc1ccc(-c2cc(NC(N)=O)c(C(N)=O)s2)cc1` [Example 4, 3-[(Aminocarbonyl)amino]-5-(4-methoxyphenyl)-2-thiophenecarboxamide] as the molecule, how does the melting point read?
Its melting point is over 300 °C.

With `NC(=O)Nc1cc(-c2ccccc2Cl)sc1C(N)=O` [Example 7, 3-[(Aminocarbonyl)amino]5-(2-chlorophenyl)-2-thiophenecarboxamide] as the molecule, how does the melting point read?
Its melting point is over 300 °C.
